Data from BindingDB's records for doi:10.1038/nchembio.137 (University of Texas Southwestern Medical Center, 2009).

Each molecule was assayed against T1, Protein Wnt-2 (Mus musculus, UniProt P21552) (assay: Wnt Inhibition Assay). Conditions: pH 7.4; 4 °C.
T1 sequence (P21552 whole entry): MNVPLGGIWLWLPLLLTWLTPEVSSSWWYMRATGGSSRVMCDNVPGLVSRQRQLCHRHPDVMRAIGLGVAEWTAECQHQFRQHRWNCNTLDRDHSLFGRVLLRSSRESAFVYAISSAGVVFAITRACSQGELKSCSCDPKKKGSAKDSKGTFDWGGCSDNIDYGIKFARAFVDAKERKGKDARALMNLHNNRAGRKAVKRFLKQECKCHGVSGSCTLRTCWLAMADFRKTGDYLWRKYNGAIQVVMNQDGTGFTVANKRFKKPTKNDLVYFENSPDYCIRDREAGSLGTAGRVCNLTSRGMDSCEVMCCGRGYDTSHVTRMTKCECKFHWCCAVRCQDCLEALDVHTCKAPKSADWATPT
From the text: Inhibition assay of Wnt response treated with exogenously supplied of Wnt protein ('exogenous Wnt' test)

How did the IC50 turn out when O=C(Nc1cccc2cccnc12)c1ccc(-n2c(O)c3c(c2O)[C@H]2C=C[C@@H]3C2)cc1 was run?
Its IC50 is 58 nM.

Cc1cccc2nc(Cn3c(=O)n(C[C@H]4CC[C@H](C(=O)NCc5ccccc5)CC4)c(=O)c4ccccc43)cc(=O)n12 [CID15995771] was tested. Which IC50 did it give?
Its IC50 is 40 nM.

For Cc1ccnc2c(NC(=O)c3ccc(-n4c(O)c5c(c4O)[C@H]4C=C[C@@H]5C4)cc3)cccc12 [CID25093486], which IC50 is on record?
Its IC50 is 27 nM.

N#Cc1ccccc1Cn1c(=O)n(C[C@H]2CC[C@H](C(=O)NCc3ccccc3)CC2)c(=O)c2ccccc21 [CID15993586] was tested. Which IC50 did it give?
The IC50 was 25 nM.
